From US7022667B2, “O-derivatized nocathiacin derivatives” (Bristol-Myers Squibb Company, priority 2002, dated 2006)
Converted amounts (≈) assume the structure as drawn.

Assays:
Assay in all cases: MIC, broth micro dilution assay (NCCLS)
Assay type in all cases: cell-based
[1] = tested on: Enterococcus faecalis A20688; conditions: Mueller-Hinton medium, 35° C., 18 hours
In short: (§1)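 Broth microdilution in Mueller-Hinton medium, with a final inoculum of about 5×10^5 cfu/well. Plates incubated at 35 °C for 18 hours in ambient air. MIC = lowest drug concentration preventing visible growth.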

[2] = tested on: Staphylococcus aureus A15090; conditions: Mueller-Hinton medium, 35° C., 18 hours
In short: as §1

[3] = tested on: Streptococcus pneumoniae A28272; conditions: 50% Mueller-Hinton medium and 50% Todd Hewitt medium, 35° C., 18 hours

Row | Structure (SMILES) | MIC (μg/mL) Enterococcus faecalis A20688 [1] [µg/mL] | MIC (μg/mL) Staphylococcus aureus A15090 [2] [µg/mL] | MIC (μg/mL) Streptococcus pneumoniae A28272 [3] [µg/mL]
1 | C=C(NC(=O)c1csc(-c2nc3c(cc2OCOP(=O)([O-])OC(C)(C)C)-c2nc(cs2)C(=O)NC(C(C)O)C(=O)NC(=C(C)OC)c2nc(cs2)C(=O)NC2c4nc(cs4)C(=O)NC(COC(=O)c4c5c6c(cccc6n4OCOP(=O)([O-])OC(C)(C)C)COC(=O)C(OC4CC(C)(O)C(N(C)C)C(C)O4)C2OC5)c2nc-3cs2)n1)C(N)=O.[Na+].[Na+] (stereo not drawn) [Example 81] | >128 | 128 | 8
2 | COC(C)=C1NC(=O)C(C(C)O)NC(=O)c2csc(n2)-c2cc(OCC(=O)OC(C)(C)C)c(-c3nc(C(N)=O)cs3)nc2-c2csc(n2)C2COC(=O)c3c4c5c(cccc5n3OCC(=O)OC(C)(C)C)COC(=O)C(OC3CC(C)(O)C(N(C)C)C(C)O3)C(OC4)C(NC(=O)c3csc1n3)c1nc(cs1)C(=O)N2 (stereo not drawn) [Example 82] | 0.06 (≈ 0.0376 µM) | 0.03 (≈ 0.0188 µM) | 0.015 (≈ 0.00939 µM)
3 | COC(C)=C1NC(=O)C(C(C)O)NC(=O)c2csc(n2)-c2cc(OC)c(-c3nc(C(N)=O)cs3)nc2-c2csc(n2)C2COC(=O)c3c4c5c(cccc5n3OC)COC(=O)C(OC3CC(C)(O)C(N(C)C)C(C)O3)C(OC4)C(NC(=O)c3csc1n3)c1nc(cs1)C(=O)N2 (stereo not drawn) [Example 83] | 0.06 (≈ 0.043 µM) | 0.03 (≈ 0.0215 µM) | 0.03 (≈ 0.0215 µM)
4 | C=C(NC(=O)c1csc(-c2nc3c(cc2OP(=O)(O)OCCCl)-c2nc(cs2)C(=O)NC(C(C)O)C(=O)NC(=C(C)OC)c2nc(cs2)C(=O)NC2c4nc(cs4)C(=O)NC(COC(=O)c4c5c6c(cccc6n4OP(=O)(O)OCCCl)COC(=O)C(OC4CC(C)(O)C(N(C)C)C(C)O4)C2OC5)c2nc-3cs2)n1)C(N)=O (stereo not drawn) [Example 86] | 4.0 (≈ 2.32 µM) | 4.0 (≈ 2.32 µM) | 0.5 (≈ 0.29 µM)
5 | C=C(NC(=O)c1csc(-c2nc3c(cc2OS(=O)(=O)c2cn(C)cn2)-c2nc(cs2)C(=O)NC(C(C)O)C(=O)NC(=C(C)OC)c2nc(cs2)C(=O)NC2c4nc(cs4)C(=O)NC(COC(=O)c4c5c6c(cccc6n4OCCCNS(=O)(=O)c4cn(C)cn4)COC(=O)C(OC4CC(C)(O)C(N(C)C)C(C)O4)C2OC5)c2nc-3cs2)n1)C(N)=O (stereo not drawn) [Example 87] | 2.0 (≈ 1.12 µM) | 1.0 (≈ 0.561 µM) | 0.06 (≈ 0.0337 µM)
